Results on two molecules are retold here after US4156737A, “P-Aminomethyl-benzene-sulfonamide derivatives, process for their preparation and applications thereof” (priority 1977, dated 1979).

Where a name gives a salt, the structure may show the parent alone.

A short description of series [1]: LD50 in mice, intraperitoneal route (acute toxicity). The format is in vivo. The note with it: mouse, in vivo, ip; mice, intraperitoneal route.
Series [2] relates to mice. Described as above. It counts as in vivo. To be noted: for toxicity: general statement introducing LD50.
Series [3] has as its system skin of rabbits. Kind of series: Topical application on the skin of rabbits (tolerance). The format is in vivo. The text has this:
(§1) High dosages of said products, suspended in suitable excipients, could be applied without any evidence of toxic symptons.
(§2) Application of said products was effected on the skin of animals both after depilation and after depilation and abrasion, so as to obtain continuous skin lesions.

Series [4] has as its system skin of rats. Kind of series: Topical application on the skin of rats (tolerance). The format is in vivo.
Excerpt: as §1, §2

Series [5] has as its system treated animals. The series can be described thus: Chronic toxicity, laboratory, organ and histological examinations of the treated animals. It counts as in vivo, rats and rabbits. The text has this: In particular, no modification was found on examination of the weight increase, of the differential leucocyte count, of azotemia, of the transaminases and of urinary excretion.
Similarly, no modification was detected on anatomopathologic and physiological examinations conducted at the level of the main organs of the treated animals.

Series [6] relates to germ strains (E. coli, Pseudomonas, Staphylococcus, Proteus, Serrata marcescens, Salmonella, Providencia). The series can be described thus: Anti-bacterial activity, agar dilutions on Mueller-Hinton medium, all germ strains. The format is cell-based. To be noted: versus p-aminomethyl-benzene-sulfonamide. As to the method:
(§3) Various tests were used to determine the anti-bacterial activity of the products of Examples 1 and 2 with respect to p-aminomethyl-benzene-sulfonamide. Said tests were effected according to the agar dilutions on Mueller-Hinton medium. The inoculum is prepared by means of an automatic Multipoint Inoculation apparatus, with a 24 hrs broth culture diluted to 1/10.
(§4) The test materials are suspended in a Twin solution.
(§5) The following germ strains were used: E. coli 130; E. coli 3671; E. coli K 12; E. coli 334; Pseudomonas 66/5; Pseudomonas 630412; Pseudomonas Paffoni; Staphylococcus 209 P; Staphylococcus 153; Pseudomonas vulgaris 66/24; Proteus marg. 66/68; Proteus mirab. 564; Proteus mirab. 250; Serrata marcescens 67/14; Salmonella 29582; Salmonella gr. B; Providencia 70/13.
(In agar dilution the substance is mixed into plates at graded concentrations.)

In series [7] the test system is Pseudomonas. Kind of series: Anti-bacterial activity, agar dilutions on Mueller-Hinton medium, Pseudomonas. The format is cell-based. As to the method: as §3, §4, §5
In series [8] the test system is Staphylococcus. The series can be described thus: Anti-bacterial activity, agar dilutions on Mueller-Hinton medium, Staphylococcus. It counts as cell-based. As for the experimental part:
as §3, §4, §5

Series [9] relates to E. coli. The series can be described thus: Anti-bacterial activity, agar dilutions on Mueller-Hinton medium, E. coli. It counts as cell-based. As to the method: as §3, §4, §5
The subject of series [10] is experimentally induced burns in male Sprague-Dawley rats. Kind of series: Protective action on experimentally induced burns. To be noted: for percent death rate of the burnt animals: after 48 hrs, versus reference animals or equivalent dosages of p-aminomethyl-benzene-sulfonamide; for protection compared with p-aminomethyl-benzene-sulfonamide: local; for protection compared with p-aminomethyl-benzene-sulfonamide / protective action against experimentally induced burns: 500 mg/kg; for protective action against experimentally induced burns: prior local administration. It counts as in vivo. As to the method:
The seriousness of the lesion thus induced is evaluated by means of the intravenous injection of Evans Blue, a vital dye.

The subject of series [11] is holes punctured through the ears of New Zealand rabbits. Kind of series: Action on cicatrization of holes punctured through the ears of rabbits. It counts as in vivo. To be noted: 10% suspension applied locally around ear hole; versus reference animals or p-aminomethyl-benzene-sulfonamide. As to the method:
To evaluate the healing action of the products of Examples 1 and 2 holes of equal diameter were punctured through the ears of New Zealand rabbits, after which the time required for cicatrization of said holes to occur was determined in untreated reference rabbits, in rabbits treated locally around the hole punctured through the ear with a 10% p-aminomethyl-benzene-sulfonamide suspension or with a suspension of identical concentration of the products of Examples 1 and 2.

Series [12] in a line: Hygroscopicity and stability of the isolated powder. It counts as physicochemical. The note with it: white powder. As for the experimental part: The material is allowed to rest at a temperature of 5° C. for 24 hours, after which the resulting product is filtered off.

Regarding `NCc1ccc(S(N)(=O)=O)cc1` [Example 1, p-aminomethyl-benzene-sulfonamide, silver salt], the LD50 in [1] is 55 mg/kg. Also, the toxicity result in series [2] was “very low toxicity”. In addition, the “tolerance and apparent toxicity after topical application” value is “equally well tolerated and free from any apparent toxicity” in series [3] (rabbit, in vivo); “equally well tolerated and free from any apparent toxicity” in [4] (rat, in vivo). The “histological examination of skin samples” value in series [5] (in vivo) is given as “failed to disclose any modification of inflammatory or degenerative type”. The “inhibiting action on the growth of the germ colonies” value in [6] is “higher inhibiting action at lower concentrations than p-aminomethyl-benzene-sulfonamide”. Also, the susceptibility of species result in series [7], in series [8] and in [9] was “particularly susceptible” throughout. Further, the “percent death rate of the burnt animals” value in [10] is on record as “lower”. The “protection compared with p-aminomethyl-benzene-sulfonamide” value in [10] is recorded as “superior to that exerted by p-aminomethyl-benzene-sulfonamide”. The “protective action against experimentally induced burns” value in series [10] was “exerts a protective action against experimentally induced burns, by inhibiting or decreasing the intensity and the seriousness of the local lesions”. Further, the “tissue regeneration and cicatrization” value in series [11] was “much more rapid than in the reference animals or in the animals treated with p-aminomethyl-benzene-sulfonamide”.
As for “p-aminomethyl-benzene-sulfonamide, zinc salt [Example 2]”, the toxicity result in [2] is on record as “very low toxicity”. In series [2] (mice, intraperitoneal route), this molecule yielded an LD50 of 80 mg/kg. Also, the “tolerance and apparent toxicity after topical application” value is “equally well tolerated and free from any apparent toxicity” in series [3] (skin of rabbits, topical); “equally well tolerated and free from any apparent toxicity” in series [4] (skin of rats, topical). Moreover, the “histological examination of skin samples” value in [5] (chronic topical treatment, inflammatory or degenerative modification) is “failed to disclose any modification of inflammatory or degenerative type”. The “inhibiting action on the growth of the germ colonies” value in series [6] is listed as “higher inhibiting action at lower concentrations than p-aminomethyl-benzene-sulfonamide”. Also, the susceptibility of species entry in series [7], in [8] and in series [9] was “particularly susceptible” throughout. For the same molecule, the “percent death rate of the burnt animals” value in series [10] is reported as “lower”. The “protection compared with p-aminomethyl-benzene-sulfonamide” value in series [10] is given as “superior to that exerted by p-aminomethyl-benzene-sulfonamide”. Further, the “protective action against experimentally induced burns” value in series [10] was “exerts a protective action against experimentally induced burns, by inhibiting or decreasing the intensity and the seriousness of the local lesions”. The “tissue regeneration and cicatrization” value in series [11] is recorded as “much more rapid than in the reference animals or in the animals treated with p-aminomethyl-benzene-sulfonamide”. Moreover, the hygroscopicity and stability entry in [12] was “non-hygroscopic stable”.

What is called LD50 is the dose expected to kill half of the subjects tested. Read a high LD50 as lower toxicity.
